Laboratory results published in patent US10696693B2, “Fused imidazole derivatives as TGF-beta inhibitors” (Rigel Pharmaceuticals, Inc., priority 2014, dated 2020).
Read-outs that look alike come from different tables or passages of the source.

Legend:
GDF8 = experiment: AlphaScreen SureFire p-SMAD3 (Ser423/425) assay, GDF8-stimulated cells; format: cell-based; conditions: Mus musculus
Method in brief: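 A SureFire AlphaScreen assay measured phosphorylation of endogenous SMAD-3 at Ser423/425 in cell lysates. Cells were treated with three-fold serially diluted compounds in DMSO for about 10 minutes, then stimulated with GDF8. After medium removal, cells were lysed in 1× Lysis Buffer (about 25 μL) with gentle shaking for 5-10 minutes.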

TGF-β = experiment: AlphaScreen SureFire p-SMAD3 (Ser423/425) assay, TGF-β-stimulated cells; format: cell-based; conditions: Mus musculus
Method in brief: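 The p-SMAD-3 (Ser423/425) SureFire assay measured phosphorylation of endogenous SMAD-3 in cell lysates. Cells were plated overnight in collagen-coated plates, exposed to three-fold serially diluted compounds for about 10 minutes, then stimulated with TGFβ. Lysates (5 μL) received acceptor bead mix for 2 hours, then donor beads for 1½ hours before AlphaScreen reading.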

[1] = MPC-11, p-SMAD3 (Ser423/425) AlphaScreen in cell lysate, MPC11, GDF8 stimulation, read-out: GDF8: inhibition of GDF8 signaling, GDF pSMAD (MPC11)
[2] = p-SMAD3 (Ser423/425) AlphaScreen in cell lysate, MPC-11, TGF-β stimulation, read-out: TGF-β: inhibition of TGF-β signaling, TGF-β pSMAD (MPC-11)

SMILES | IC50 (GDF8; [1]) [nM] | IC50 (TGF-β; [2]) [nM] | IC50 (GDF8; MPC-11, read-out: GDF8: inhibition of GDF8 signaling, GDF pSMAD (MPC11), p-SMAD3 (Ser423/425) AlphaScreen in cell lysate, GDF8 stimulation) [nM] | IC50 (TGF-β; MPC-11, read-out: TGF-β: inhibition of TGF-β signaling, TGF-β pSMAD (MPC-11), p-SMAD3 (Ser423/425) AlphaScreen in cell lysate, TGF-β stimulation) [nM]
Fc1cc(F)c(-c2nc3occn3c2-c2ccc3ncsc3c2)cc1F [Compound 151, 5-(benzo[d]thiazol-6-yl)-6-(2,4,5-trifluorophenyl)imidazo[2,1-b]oxazole] | < 50 | < 50 | – | –
Cc1c(F)ccc(-c2nc3n(c2-c2ccc4nccn4c2)CCC3)c1C [Compound 74, 6-(2-(4-fluoro-2,3-dimethylphenyl)-6,7-dihydro-5H-pyrrolo[1,2-a]imidazol-3-yl)imidazo[1,2-a]pyridine] | 100 to 1000 | > 1000 | – | –
Fc1ccc(-c2nc3occn3c2-c2ccc3nccnc3c2)c(F)c1F [Compound 164, 5-(quinoxalin-6-yl)-6-(2,3,4-trifluorophenyl)imidazo[2,1-b]oxazole] | 100 to 1000 | 100 to 1000 | – | –
COCCOc1cnc2ccc(-c3c(-c4cc(F)c(F)cc4F)nc4n3CCN4)cc2n1 [Compound 115, 2-(2-methoxyethoxy)-7-(6-(2,4,5-trifluorophenyl)-2,3-dihydro-1H-imidazo[1,2-a]imidazol-5-yl)quinoxaline] | 100 to 1000 | 100 to 1000 | – | –
Fc1cc(F)c(F)c(-c2nc3n(c2-c2ccc4ncccc4c2)CCN3)c1 [Compound 110, 6-(6-(2,3,5-trifluorophenyl)-2,3-dihydro-1H-imidazo[1,2-a]imidazol-5-yl)quinoline] | < 50 | < 50 | – | –
Fc1ccc(-c2nc3n(c2-c2ccc4[nH]ncc4c2)CCC3)cc1Cl [Compound 264, 5-(2-(3-chloro-4-fluoropheny)-6,7-dihydro-5H-pyrrolo[1,2-a]imidazol-3-yl)-1H-indazole] | < 50 | 100 to 1000 | – | –
Fc1ccc(-c2nc3occn3c2-c2ccc3[nH]ncc3c2)cc1F [Compound 133, 6-(3,4-difluorophenyl)-5-(1H-indazol-5-yl)imidazo[2,1-b]oxazole] | 50 to 100 | 50 to 100 | – | –
Cc1ccc(-c2nc3n(c2-c2ccc4[nH]ncc4c2)CCC3)c(F)c1F [Compound 248, 5-(2-(2,3-difluoro-4-methylphenyl)-6,7-dihydro-5H-pyrrolo[1,2-a]imidazol-3-yl)-1H-indazole] | > 1000 | > 1000 | – | –
CC(=O)N1CCn2c1nc(-c1cc(F)c(F)cc1F)c2-c1ccc2ncnn2c1 [Compound 104, 1-(5-([1,2,4]triazolo[1,5-a]pyridin-6-yl)-6-(2,4,5-trifluorophenyl)-2,3-dihydro-1H-imidazo[1,2-a]imidazol-1-yl)ethan-1-one] | > 1000 | > 1000 | – | –
Cc1cc(-c2nc3n(c2-c2ccc4nccn4c2)CCC3)cc(C)c1F [Compound 43, 6-(2-(4-fluoro-3,5-dimethylphenyl)-6,7-dihydro-5H-pyrrolo[1,2-a]imidazol-3-yl)imidazo[1,2-c]pyridine] | > 1000 | > 1000 | – | –
Fc1ccc(-c2nc3n(c2-c2ccc4ncnn4c2)CCC3)cc1Cl [Compound 36, 6-(2-(3-chloro-4-fluorophenyl)-6,7-dihydro-5H-pyrrolo[1,2-a]imidazol-3-yl)-[1,2,4]triazolo[1,5-a]pyridine] | < 50 | 100 to 1000 | – | –
Fc1ccc(-c2nc3occn3c2-c2ccc3nccn3c2)cc1 [Compound 129, 6-(4-fluorophenyl)-5-(imidazo[1,2-a]pyridin-6-yl)imidazo[2,1-b]oxazole] | < 50 | 50 to 100 | – | –
Fc1cc(F)c(-c2nc3occn3c2-c2ccc3nccnc3c2)cc1F [Compound 149, 5-(quinoxalin-6-yl)-6-(2,4,5-trifluorophenyl)imidazo[2,1-b]oxazole] | < 50 | 50 to 100 | – | –
Cc1c(F)ccc(-c2nc3n(c2-c2ccc4nccnc4c2)CCC3)c1Cl [Compound 314, 6-(2-(2-chloro-4-fluoro-3-methylphenyl)-6,7-dihydro-5H-pyrrolo[1,2-a]imidazol-3-yl)quinoxaline] | > 1000 | > 1000 | – | –
Cc1ccc(-c2nc3occn3c2Br)c(F)c1 [Compound 153, 5-bromo-6-(2-fluoro-4-methylphenyl)imidazo[2,1-b]oxazole] | > 1000 | > 1000 | – | –
Cc1cc(F)c(-c2nc3n(c2-c2ccc4nccnc4c2)CCC3)cc1F [Compound 286, 6-(2-(2,5-difluoro-4-methylphenyl)-6,7-dihydro-5H-pyrrolo[1,2-a]imidazol-3-yl)quinoxaline] | – | – | > 1000 | > 1000
c1ccc(-c2nc3n(c2-c2ccc4nccn4c2)CCC3)nc1 [Compound 370, 6-(2-(pyridin-2-yl)-6,7-dihydro-5H-pyrrolo[1,2-a]imidazol-3-yl)imidazo[1,2-a]pyridine] | < 50 | < 50 | – | –
Fc1cc(-c2nc3n(c2-c2ccc4ncsc4c2)CCC3)c(F)cc1Cl [Compound 240, 6-(2-(4-chloro-2,5-difluorophenyl)-6,7-dihydro-5H-pyrrolo[1,2-a]imidazol-3-yl)benzo[d]thiazole] | 100 to 1000 | > 1000 | – | –
Fc1cc(F)c(-c2nc3occn3c2-c2ccc3ncccc3c2)cc1F [Compound 150, 5-(quinolin-6-yl)-6-(2,4,5-trifluorophenyl)imidazo[2,1-b]oxazole] | < 50 | 50 to 100 | – | –
Cc1cc(F)ccc1-c1nc2n(c1-c1ccc3ncnn3c1)CCC2 [Compound 54, 6-(2-(4-fluoro-2-methylphenyl)-6,7-dihydro-5H-pyrrolo[1,2-a]imidazol-3-yl)-[1,2,4]triazolo[1,5-a]pyridine] | 100 to 1000 | > 1000 | – | –
CC(C)c1nnc2ccc(-c3c(-c4cc(F)c(Cl)cc4F)nc4n3CCC4)cn12 [Compound 20, 6-(2-(4-chloro-2,5-difluorophenyl)-6,7-dihydro-5H-pyrrolo[1,2-a]imidazol-3-yl)-3-isopropyl-[1,2,4]triazolo[4,3-a]pyridine] | > 1000 | > 1000 | – | –
Cc1ccc(Cl)cc1-c1nc2n(c1-c1ccc3nccnc3c1)CCC2 [Compound 342, 6-(2-(5-chloro-2-methylpheny)-6,7-dihydro-5H-pyrrolo[1,2-a]imidazol-3-yl)quinoxaline] | 100 to 1000 | 100 to 1000 | – | –
Cc1cc(-c2nc3n(c2-c2ccc4[nH]ncc4c2)CCC3)cc(C)c1Cl [Compound 243, 5-(2-(4-chloro-3,5-dimethylphenyl)-6,7-dihydro-5H-pyrrolo[1,2-a]imidazol-3-yl)-1H-indazole] | > 1000 | > 1000 | – | –
OCC1Cn2c(nc(-c3cc(F)cc(F)c3F)c2-c2ccc3ncccc3c2)N1 (stereo not drawn) [Compound 123, (5-(quinolin-6-yl)-6-(2,3,5-trifluorophenyl)-2,3-dihydro-1H-imidazo[1,2-a]imidazol-2-yl)methanol] | 50 to 100 | 100 to 1000 | – | –
Cc1cccc(-c2nc3occn3c2-c2ccc3ncsc3c2)c1 [Compound 141, 5-(benzo[d]thiazo-6-yl)-6-(m-tolyl)imidazo[2,1-b]oxazole] | < 50 | < 50 | – | –
Fc1ccc(F)c(-c2nc3n(c2-c2ccc4[nH]ncc4c2)CCC3)c1F [Compound 221, 5-(2-(2,3,6-trifluorophenyl)-6,7-dihydro-5H-pyrrolo[1,2-a]imidazol-3-yl)-1H-indazole] | 100 to 1000 | > 1000 | – | –
Fc1ccccc1-c1nc2n(c1-c1cc3cnccc3s1)CCC2 [Compound 100, 2-(2-(2-fluorophenyl)-6,7-dihydro-5H-pyrrolo[1,2-a]imidazol-3-yl)thieno[3,2-c]pyridine] | 100 to 1000 | > 1000 | – | –
